Source: patent EP0430883A2, “Anthelmintical compounds” (CIBA-GEIGY AG, priority 1989, dated 1991)

Columns and labels:
[1] = system: Nematoden wie Haemonchus contortus und Trichostrongylus colubriformis; assay: Test on sheep infected with nematodes (worm count at necropsy); assay type: in vivo, Schafe; conditions: single dose of 20 mg Wirksubstanz pro kg Körpergewicht, suspension by stomach tube or rumen injection, worms left in the gut counted 7-10 days after treatment vs untreated infected controls
Text: 3.1. Versuch an mit Nematoden wie Haemonchus contortus und Trichostrongylus colubriformis infizierten Schafen
Der Wirkstoff wird in Form einer Suspension mit einer Magensonde oder durch Pansen-Injektion Schafen verabreicht, die vorher mit Nematoden wie Haemonchus contortus und Trichostrongylus colubriformis künstlich infiziert wurden. Pro Versuch resp. pro Dosis werden 1 bis 3 Tiere verwendet. Jedes Schaf wird mit nur einer einzigen Dosis behandelt.
Eine erste Evaluierung erfolgt dadurch, dass die Anzahl der vor und nach der Behandlung im Kot der Schafe ausgeschiedenen Wurmeier verglichen wird.
Sieben bis zehn Tage nach der Behandlung werden die Schafe getötet und seziert. Die Auswertung erfolgt durch Auszählung der nach der Behandlung im Darm zurückbleibenden Würmer. Gleichzeitig und gleichartig infizierte aber unbehandelte Schafe dienen als Kontrolle resp. Vergleich.
In diesem Test wird mit Verbindungen der Formeln I und la eine starke Reduzierung des Nematodenbefalls erzielt. So wird beispielsweise beim Einsatz von 20 mg Wirksubstanz pro kg Körpergewicht mit den nachfolgenden Verbindungen eine Reduzierung des Nematodenbefalls von ca. 90 % bewirkt: 1.1, 5.1 und 5.2. Dieses Ergebnis wird bei einzelnen Verbindungen auch noch mit weiter herabgesetzter Dosis, beispielsweise mit 10 mg Wirksubstanz pro kg Körpergewicht oder noch geringeren Mengen an Wirksubstanz, erreicht.

[2] = system: Cestoden wie Moniezia benedeni; assay: Test on sheep infected with cestodes (worm count at necropsy); assay type: in vivo, Schafe; conditions: single dose of less than 20 mg/kg Körpergewicht, suspension by stomach tube or rumen injection, worms left in the gut counted 7-10 days after treatment vs untreated infected controls
Text: 3.2. Versuch an mit Cestoden wie Moniezia benedeni infizierten Schafen
Der Wirkstoff wird in Form einer Suspension mit einer Magensonde oder durch Pansen-Injektion Schafen verabreicht, die vorher mit Cestoden wie Moniezia benedeni artifiziell infiziert wurden. Pro Versuch resp. pro Dosis werden 3 Tiere verwendet. Jedes Schaf wird mit nur einer einzigen Dosis behandelt.
Sieben bis zehn Tage nach der Behandlung werden die Schafe getötet und seziert. Die Auswertung erfolgt durch Auszählung der nach der Behandlung im Darm zurückbleibenden Würmer. Gleichzeitig und gleichartig infizierte aber unbehandelte Schafe dienen als Kontrolle resp. Vergleich. In diesem Versuch bewirken Wirkstoffe aus den Tabellen, wie beispielsweise die Verbindungen Nr. 1.1, 5.1 und 5.2. bei Dosen von weniger als 20 mg/kg Körpergewicht eine ca. 90%ige Reduktion des Cestodenbefalls.

| Compound | Reduzierung des Nematodenbefalls [1] | Reduktion des Cestodenbefalls [2] |
| --- | --- | --- |
| 1,3-Dimethyl-5-[4-(5-oder 7-Chlor-6-fluor-benzthiazol-2-yloxy)-phenylcarbamoyl]-4,6-(1 H,3H,5H)-pyrimidindion [Verbindung 5.2] | ca. 90% | ca. 90% |
| Cn1c[n+](C)c(=O)c(C(=O)Nc2ccc(Oc3nc4ccc(OC(F)(F)F)cc4s3)cc2)c1[O-] [Verbindung 1.1, 1,3-Dimethyl-5-[4-(6-trifluormethoxy-benzthiazol-2-yloxy)-phenylcarbamoyl]-4(6)-oxo-6-(4)-oxido-(1H,5H)-pyrimidiniumbetain] | ca. 90% | ca. 90% |
| CN1CN(C)C(=O)C(C(=O)Nc2ccc(Oc3nc4ccc(OC(F)(F)F)cc4s3)cc2)C1=O [Verbindung 5.1, 1,3-Dimethyl-5-[4-(6-trifluormethoxy-benzthiazol-2-yloxy)-phenylcarbamoyl]-4,6-(1 H,3H,5H)-pyrimidindion] | ca. 90% | ca. 90% |
